Test results from ChEMBL document CHEMBL1137828, “Spiroquinazolinones as novel, potent, and selective PDE7 inhibitors. Part 2: Optimization of 5,8-disubstituted derivatives” (Bioorg Med Chem Lett, 2004).
In brackets after ≈: the same amount, converted by molar mass.

Legend:
[1] = Solubility in HCl/KCl buffer at pH 1; assay type: physicochemical
[2] = target: cGMP-inhibited 3',5'-cyclic phosphodiesterase 3A (Homo sapiens, UniProt Q14432); assay: Inhibition of human PDE3A3 expressed in baculovirus infected Sf9 cells
[3] = target: cGMP-specific 3',5'-cyclic phosphodiesterase (Homo sapiens, UniProt O76074); assay: Inhibition of human PDE5 partially purified from MCF-7 cells; assay type: cell-free, MCF7
[4] = target: 3',5'-cyclic-AMP phosphodiesterase 4D (Homo sapiens, UniProt Q08499); assay: Inhibition of human PDE4D3 expressed in baculovirus infected Sf9 cells
[5] = Solubility in Na2HPO4/NaH2PO4 buffer at pH 7.4; assay type: physicochemical
[6] = target: High affinity 3',5'-cyclic-AMP phosphodiesterase 7A (Homo sapiens, UniProt Q13946); assay: Inhibition of human PDE7A1 expressed in baculovirus infected Sf9 cells
[7] = target: T1, Phosphodiesterase 1 (Homo sapiens, UniProt P54750+Q01064+Q14123); assay: Inhibition of human PDE1 partially purified from THP-1 cells; assay type: cell-free
[8] = Clearance in rats when administered at a dose of 0.5 mg/kg i.v.; assay type: ADME, organism-based; set-up: dose 0.5 mg/kg, route intravenous; settings: rat, in vivo, iv
[9] = Volume of distribution in rats when administered at a dose of 0.5 mg/kg i.v.; assay type: ADME, organism-based; set-up: dose 0.5 mg/kg, route intravenous; settings: rat, in vivo, iv
[10] = Half-life in rats after peroral administration of 2.5 mg/kg; assay type: ADME, organism-based; set-up: dose 2.5 mg/kg, route oral; settings: rat, in vivo, po
[11] = Oral bioavailability in rat (dose 2.5 mg/kg); assay type: ADME, organism-based; settings: in vivo
[12] = target: T1, Phosphodiesterase 1; assay: Inhibition of human PDE1 expressed in baculovirus infected Sf9 cells

High affinity 3',5'-cyclic-AMP phosphodiesterase 7A, sequence (Q13946 whole entry): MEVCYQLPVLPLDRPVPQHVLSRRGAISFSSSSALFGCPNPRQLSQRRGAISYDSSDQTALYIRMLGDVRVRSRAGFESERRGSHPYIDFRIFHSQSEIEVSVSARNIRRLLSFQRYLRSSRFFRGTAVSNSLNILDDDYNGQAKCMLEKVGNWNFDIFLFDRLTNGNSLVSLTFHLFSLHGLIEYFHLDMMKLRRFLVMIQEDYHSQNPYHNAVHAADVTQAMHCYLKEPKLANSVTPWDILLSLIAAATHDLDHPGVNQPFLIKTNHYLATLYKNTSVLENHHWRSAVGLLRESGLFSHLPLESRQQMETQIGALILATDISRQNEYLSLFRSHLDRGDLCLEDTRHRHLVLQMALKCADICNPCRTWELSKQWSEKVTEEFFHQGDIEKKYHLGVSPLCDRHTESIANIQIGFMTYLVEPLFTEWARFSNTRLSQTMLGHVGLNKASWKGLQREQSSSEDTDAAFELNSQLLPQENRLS
cGMP-inhibited 3',5'-cyclic phosphodiesterase 3A, sequence (Q14432 whole entry): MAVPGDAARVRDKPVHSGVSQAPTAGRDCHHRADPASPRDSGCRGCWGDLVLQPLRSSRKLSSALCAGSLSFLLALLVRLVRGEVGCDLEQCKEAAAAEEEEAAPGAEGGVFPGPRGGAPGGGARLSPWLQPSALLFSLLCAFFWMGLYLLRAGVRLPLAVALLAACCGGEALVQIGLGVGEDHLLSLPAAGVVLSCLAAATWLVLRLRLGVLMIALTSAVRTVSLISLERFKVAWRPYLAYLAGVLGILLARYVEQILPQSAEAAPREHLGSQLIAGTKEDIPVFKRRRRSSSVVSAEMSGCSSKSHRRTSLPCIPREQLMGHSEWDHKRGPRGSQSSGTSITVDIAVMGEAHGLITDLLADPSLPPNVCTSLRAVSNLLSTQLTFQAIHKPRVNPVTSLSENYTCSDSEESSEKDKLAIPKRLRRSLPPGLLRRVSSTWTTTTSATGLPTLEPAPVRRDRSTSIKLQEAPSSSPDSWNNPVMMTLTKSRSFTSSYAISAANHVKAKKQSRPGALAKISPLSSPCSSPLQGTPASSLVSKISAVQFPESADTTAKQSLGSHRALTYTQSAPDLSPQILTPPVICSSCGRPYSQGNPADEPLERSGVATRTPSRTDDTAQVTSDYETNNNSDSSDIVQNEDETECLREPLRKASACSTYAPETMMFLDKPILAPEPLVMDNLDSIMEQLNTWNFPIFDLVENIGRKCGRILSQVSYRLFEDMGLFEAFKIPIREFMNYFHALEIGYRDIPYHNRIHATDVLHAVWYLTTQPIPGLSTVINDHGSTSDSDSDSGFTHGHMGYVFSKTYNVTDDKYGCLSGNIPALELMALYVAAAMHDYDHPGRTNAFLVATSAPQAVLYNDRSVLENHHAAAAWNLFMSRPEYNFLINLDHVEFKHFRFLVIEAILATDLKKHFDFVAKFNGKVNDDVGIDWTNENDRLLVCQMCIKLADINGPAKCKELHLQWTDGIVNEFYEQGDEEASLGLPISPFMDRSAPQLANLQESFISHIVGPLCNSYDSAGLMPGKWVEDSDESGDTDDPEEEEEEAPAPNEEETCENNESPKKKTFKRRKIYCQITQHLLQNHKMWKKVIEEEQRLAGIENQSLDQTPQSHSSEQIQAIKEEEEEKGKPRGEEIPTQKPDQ
3',5'-cyclic-AMP phosphodiesterase 4D, sequence (Q08499 whole entry): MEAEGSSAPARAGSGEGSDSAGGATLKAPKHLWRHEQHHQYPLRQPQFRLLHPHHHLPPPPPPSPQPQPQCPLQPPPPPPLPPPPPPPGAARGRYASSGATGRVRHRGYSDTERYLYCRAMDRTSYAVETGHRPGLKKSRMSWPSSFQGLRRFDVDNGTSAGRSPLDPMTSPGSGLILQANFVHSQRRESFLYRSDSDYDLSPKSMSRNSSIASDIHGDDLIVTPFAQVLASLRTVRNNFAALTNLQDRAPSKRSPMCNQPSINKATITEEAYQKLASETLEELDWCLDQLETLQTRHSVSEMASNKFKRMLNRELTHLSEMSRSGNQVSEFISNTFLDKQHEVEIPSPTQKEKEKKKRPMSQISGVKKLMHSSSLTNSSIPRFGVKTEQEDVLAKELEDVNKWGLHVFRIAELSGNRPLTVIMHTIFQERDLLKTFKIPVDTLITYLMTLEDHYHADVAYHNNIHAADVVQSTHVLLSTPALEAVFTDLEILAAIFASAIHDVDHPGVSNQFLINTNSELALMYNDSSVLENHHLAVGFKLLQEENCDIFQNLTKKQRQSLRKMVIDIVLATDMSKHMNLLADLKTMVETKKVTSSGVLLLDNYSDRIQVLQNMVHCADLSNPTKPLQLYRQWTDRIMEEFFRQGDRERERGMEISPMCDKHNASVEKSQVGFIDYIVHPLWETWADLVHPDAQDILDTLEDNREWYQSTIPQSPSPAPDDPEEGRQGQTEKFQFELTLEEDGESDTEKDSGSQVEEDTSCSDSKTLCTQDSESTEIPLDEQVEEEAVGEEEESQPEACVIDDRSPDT

Compound	solubility [1] [µg/mL]	IC50 [2] [µM]	IC50 [3] [µM]	IC50 [4] [µM]	solubility [5] [µg/mL]	IC50 [6] [µM]	IC50 [7] [µM]	clearance [8] [mL/min/kg]	Vd [9] [L/kg]	half-life [10] [h]	bioavailability [11] [%]	IC50 [12] [µM]
O=C1Nc2c(Cl)ccc(OCc3noc(O)n3)c2C2(CCCCC2)N1	< 1	21.9	> 101	0.82	113 (≈ 310 µM)	0.0035	0.61	–	–	–	–	–
O=C1Nc2c(Cl)ccc(O)c2C2(CCCCC2)N1	–	–	–	–	–	0.01	–	–	–	–	–	–
O=C(O)COc1ccc(Cl)c2c1C1(CCCCC1)NC(=O)N2	1 (≈ 3.08 µM)	> 68	> 101	15	> 500	0.04	4.76	39.4	1.04	1.4	21	–
O=C1Nc2c(Cl)ccc(OCCO)c2C2(CCCCC2)N1	11 (≈ 35.4 µM)	> 73	> 91	12.2	18 (≈ 57.9 µM)	0.05	10.5	33.6	1.41	1.5	27	–
CN(C)CC(O)COc1ccc(Cl)c2c1C1(CCCCC1)NC(=O)N2 (stereo unspecified)	> 500	> 101	> 101	55	137 (≈ 372 µM)	0.4	> 101	–	–	–	–	–
N#CCOc1ccc(Cl)c2c1C1(CCCCC1)NC(=O)N2	4 (≈ 13.1 µM)	94	> 101	1.7	4 (≈ 13.1 µM)	0.02	5.86	–	–	–	–	–
NCCOCCOc1ccc(Cl)c2c1C1(CCCCC1)NC(=O)N2	> 500	> 101	> 101	99	> 500	1.62	> 101	–	–	–	–	–
O=C1Nc2c(Cl)ccc(OCc3nn[nH]n3)c2C2(CCCCC2)N1	< 1	11.8	> 88	0.32	345 (≈ 989 µM)	0.004	–	–	–	–	–	0.32
CN(C)CCOc1ccc(Cl)c2c1C1(CCCCC1)NC(=O)N2	> 500	> 101	74	3.28	195 (≈ 577 µM)	0.15	19	–	–	–	–	–
CNCCOc1ccc(Cl)c2c1C1(CCCCC1)NC(=O)N2	> 500	> 101	> 101	53.2	> 500	0.96	72.4	–	–	–	–	–
COc1ccc(Cl)c2c1C1(CCCCC1)NC(=O)N2	–	–	–	–	–	0.01	–	–	–	–	–	–
CN(C)CCCOc1ccc(Cl)c2c1C1(CCCCC1)NC(=O)N2	–	> 101	98	23.7	–	1.24	> 101	–	–	–	–	–
NCCOc1ccc(Cl)c2c1C1(CCCCC1)NC(=O)N2	> 500	> 101	73.2	10.5	190 (≈ 613 µM)	1.04	33	–	–	–	–	–
O=C1Nc2c(Cl)cccc2C2(CCCCC2)N1	–	–	–	–	–	0.17	–	–	–	–	–	–
O=C1Nc2c(Cl)ccc(OCCN3CCOCC3)c2C2(CCCCC2)N1	> 500	> 101	> 101	7.35	4 (≈ 10.5 µM)	0.03	29	62.8	1.02	0.32	3.7	–
CCOC(=O)c1ccc(COc2ccc(Cl)c3c2C2(CCCCC2)NC(=O)N3)o1	–	78	80	1.02	–	0.01	2.98	–	–	–	–	–
O=C1Nc2c(Cl)ccc(OCCCS(=O)(=O)O)c2C2(CCCCC2)N1	> 500	12.7	60	2.41	> 500	0.01	0.65	–	–	–	–	–
O=C(O)CNCCOc1ccc(Cl)c2c1C1(CCCCC1)NC(=O)N2	> 500	> 101	> 101	14.7	230 (≈ 625 µM)	0.04	29.7	39.9	0.47	2.7	6.5	–
Cc1ccc(Cl)c2c1C1(CCCCC1)NC(=O)N2	–	–	–	–	–	0.1	–	–	–	–	–	–
CNCC(O)COc1ccc(Cl)c2c1C1(CCCCC1)NC(=O)N2 (stereo unspecified)	> 500	> 101	> 101	12	> 500	0.21	> 101	–	–	–	–	–
O=C1Nc2c(Cl)ccc(OCc3ccc(C(=O)O)o3)c2C2(CCCCC2)N1	< 1	10.8	> 101	1.13	100 (≈ 256 µM)	0.016	1.6	–	–	–	–	–
O=C1Nc2c(Cl)ccc(Cl)c2C2(CCCCC2)N1	–	–	–	–	–	0.01	–	–	–	–	–	–
